Laboratory results taken from EP4775574A1, “FURAN RING-CONTAINING COMPOUND, PHARMACEUTICAL COMPOSITION THEREOF, AND USE THEREOF” (Wuhan Xirui Pharmaceutical Technology Co., Ltd, priority 2023, dated 2025).
Read-outs that look alike come from different tables or passages of the source.

Target: T1, Nav1.8 sodium channel (Homo sapiens, UniProt Q9Y5Y9)
T1 construct: host or cells: CHO
Assay: Blocking activity against sodium channel 1.8 (Nav1.8), whole-cell patch-clamp, inhibition rate
Type: cell-based
Experimental: Experimental objective: The effects of the compounds on the current of the voltage-gated sodium channel (NaV) 1.8 subtype were detected by patch-clamp technique • 2. […] When the cells were detached from the bottom of the dish, about 5 mL of preheated complete medium at 37°C was added. The cell suspension was gently pipetted up and down to separate the aggregated cells. The cell suspension was transferred to a sterile centrifuge tube and centrifuged at 1000 rpm for 5 min to collect the cells. […] First, the voltage was stepped from -130 mV to -10 mV in 10 mV increments for 5 s, and then a 0 mV depolarizing pulse was applied to obtain the half-inactivation voltage (Vhalf). The resting state and half-inactivated state of the sodium current were detected by using a double-pulse protocol. First, the first depolarizing pulse (TP1) was applied to 0 mV for 50 ms to detect the sodium current in the resting state. Then, the voltage was adjusted to Vhalf and maintained for 5 s, followed by restoration of the voltage to -120 mV and maintenance for 20 ms, after which the second depolarizing pulse (TP2) was applied to 0 mV for 50 ms to detect the sodium current in the half-inactivated state. Finally, the voltage was restored to the clamping voltage of -120 mV. Data were repeatedly collected every […] to observe the effect of the drug on the peak values of sodium currents in the two different states. Experimental data were collected by the EPC 10 amplifier (HEKA) and stored in the PatchMaster (HEKA) software. • (2) During patch clamp operation, capillary glass tubes were first pulled into recording electrodes using a microelectrode puller, then the electrodes filled with intracellular solution were installed into the microelectrode holder. Under an inverted microscope, the micromanipulator was used to bring the recording electrode into contact with the cell, and negative pressure suction was applied to form a GΩ seal. At this time, fast capacitance compensation was performed, and then negative pressure was continuously applied to rupture the cell membrane and form the whole-cell recording mode. Finally, slow capacitance compensation was performed, and related parameters were recorded. Leak compensation was not applied. • (3) When the sodium current of whole-cell recording became stable, drug administration was started, and each drug concentration was applied for 5 min (or until the current became stable) before the next concentration was tested. The coverslip coated with cells was placed in the recording bath under an inverted microscope, and the blank control external solution and the test compound working solution were perfused through the recording bath in sequence from low concentration to high concentration by gravity, thereby acting on the cells, while a peristaltic pump was used for liquid exchange during recording. The current detected in the external solution without compounds for each cell was used as its own control group. Each concentration was independently tested twice. All electrophysiological experiments were conducted at room temperature.
First, the current after the effect of each drug concentration and the blank control current were normalized, then the inhibition rate corresponding to each drug concentration was calculated, that is, (1-Icompound /Icontrol), and the mean, standard deviation (SD), and standard error (SE) of the inhibition rate for each concentration were calculated, and the data were expressed as mean ± SE.

[1] = CHO cell line stably expressing Nav1.8, patch-clamp, test concentration not given

T1 sequence (Q9Y5Y9 whole entry): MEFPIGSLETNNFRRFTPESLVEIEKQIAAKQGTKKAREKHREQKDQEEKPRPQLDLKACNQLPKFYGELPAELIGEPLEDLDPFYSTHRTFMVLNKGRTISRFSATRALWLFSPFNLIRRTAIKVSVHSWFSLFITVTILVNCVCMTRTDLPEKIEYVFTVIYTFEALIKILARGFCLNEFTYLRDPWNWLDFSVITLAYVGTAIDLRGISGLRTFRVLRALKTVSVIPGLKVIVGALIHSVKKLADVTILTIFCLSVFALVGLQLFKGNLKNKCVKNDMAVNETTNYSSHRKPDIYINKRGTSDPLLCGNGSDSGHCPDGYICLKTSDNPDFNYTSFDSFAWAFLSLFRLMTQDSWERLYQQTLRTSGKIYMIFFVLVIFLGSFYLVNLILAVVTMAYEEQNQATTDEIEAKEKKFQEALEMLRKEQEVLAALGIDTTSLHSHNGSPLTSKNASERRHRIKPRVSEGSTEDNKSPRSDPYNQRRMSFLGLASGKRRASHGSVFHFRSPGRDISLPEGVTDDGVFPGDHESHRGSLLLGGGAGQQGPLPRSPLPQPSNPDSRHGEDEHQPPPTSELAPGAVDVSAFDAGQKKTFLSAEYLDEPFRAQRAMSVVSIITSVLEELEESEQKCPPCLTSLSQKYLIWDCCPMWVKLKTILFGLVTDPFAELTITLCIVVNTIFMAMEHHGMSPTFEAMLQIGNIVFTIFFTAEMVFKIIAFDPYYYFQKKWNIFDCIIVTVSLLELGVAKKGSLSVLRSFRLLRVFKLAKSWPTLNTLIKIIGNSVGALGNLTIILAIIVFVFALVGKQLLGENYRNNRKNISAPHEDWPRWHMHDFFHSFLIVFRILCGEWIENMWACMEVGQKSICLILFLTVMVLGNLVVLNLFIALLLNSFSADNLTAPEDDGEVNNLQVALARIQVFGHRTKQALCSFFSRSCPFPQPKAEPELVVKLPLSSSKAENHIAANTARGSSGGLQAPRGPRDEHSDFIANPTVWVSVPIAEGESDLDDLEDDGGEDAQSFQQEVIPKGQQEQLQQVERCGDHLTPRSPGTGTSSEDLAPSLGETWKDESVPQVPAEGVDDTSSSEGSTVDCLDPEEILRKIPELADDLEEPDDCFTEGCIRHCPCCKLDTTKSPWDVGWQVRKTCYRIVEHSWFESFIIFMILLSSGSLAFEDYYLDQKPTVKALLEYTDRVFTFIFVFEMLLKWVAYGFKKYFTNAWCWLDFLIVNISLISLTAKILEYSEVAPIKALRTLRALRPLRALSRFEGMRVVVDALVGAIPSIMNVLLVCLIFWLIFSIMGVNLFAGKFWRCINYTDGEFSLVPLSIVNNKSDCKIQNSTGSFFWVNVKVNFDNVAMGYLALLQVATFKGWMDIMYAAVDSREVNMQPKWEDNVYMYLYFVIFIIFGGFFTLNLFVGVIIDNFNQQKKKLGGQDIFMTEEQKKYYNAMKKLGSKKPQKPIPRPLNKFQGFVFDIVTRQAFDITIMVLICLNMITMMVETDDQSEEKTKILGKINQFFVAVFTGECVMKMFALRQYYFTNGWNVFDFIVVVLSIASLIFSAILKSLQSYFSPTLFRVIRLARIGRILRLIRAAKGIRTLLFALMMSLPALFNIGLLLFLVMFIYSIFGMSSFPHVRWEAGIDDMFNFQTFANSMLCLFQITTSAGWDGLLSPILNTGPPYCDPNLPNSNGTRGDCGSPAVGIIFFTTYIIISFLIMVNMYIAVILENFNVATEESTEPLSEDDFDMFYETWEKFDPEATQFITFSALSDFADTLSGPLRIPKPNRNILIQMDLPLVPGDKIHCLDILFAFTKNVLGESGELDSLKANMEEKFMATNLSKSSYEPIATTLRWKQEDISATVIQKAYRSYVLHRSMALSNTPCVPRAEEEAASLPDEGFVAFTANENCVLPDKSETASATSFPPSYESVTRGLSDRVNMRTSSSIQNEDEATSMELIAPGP

## CONC(=O)c1cc(NC(=O)[C@@H]2O[C@@](C)(C(F)(F)F)[C@@H](C)[C@H]2c2ccc(F)c(F)c2OC)ccn1 [Example 1]
[1]
  Inhibition rate (%): 80.08%

## CCONC(=O)c1cc(NC(=O)[C@@H]2O[C@@](C)(C(F)(F)F)[C@@H](C)[C@H]2c2ccc(F)c(F)c2OC)ccn1 [Example 2]
  Inhibition rate (%): 76.36%

## COc1c([C@H]2[C@H](C(=O)Nc3ccnc(C(=O)NN)c3)O[C@@](C)(C(F)(F)F)[C@H]2C)ccc(F)c1F [Example 5]
  Inhibition rate (%): 50.04%

## CNNC(=O)c1cc(NC(=O)[C@@H]2O[C@@](C)(C(F)(F)F)[C@@H](C)[C@H]2c2ccc(F)c(F)c2OC)ccn1 [Example 6]
[1]
  Inhibition rate (%): 71.63%

## COc1c([C@H]2[C@H](C(=O)Nc3cc[n+]([O-])c(C(=N)NO)c3)O[C@@](C)(C(F)(F)F)[C@H]2C)ccc(F)c1F [Example 8]
  Inhibition rate (%): 90.96%

## COc1c([C@H]2[C@H](C(=O)Nc3ccc(F)c(C(=O)NO)c3)O[C@@](C)(C(F)(F)F)[C@H]2C)ccc(F)c1F [Example 9]
  Inhibition rate (%): 97.24%

## COc1c([C@H]2[C@H](C(=O)Nc3ccc(C(F)(F)F)c(C(=N)NO)c3)O[C@@](C)(C(F)(F)F)[C@H]2C)ccc(F)c1F [Example 12]
  Inhibition rate (%): 76.58%

## COc1c([C@H]2[C@H](C(=O)Nc3cc(F)c(F)c(C(=N)NO)c3)O[C@@](C)(C(F)(F)F)[C@H]2C)ccc(F)c1F [Example 13]
  Inhibition rate (%): 89.85%

## COc1c([C@H]2[C@H](C(=O)Nc3cc(C(=N)NO)c(F)cc3F)O[C@@](C)(C(F)(F)F)[C@H]2C)ccc(F)c1F [Example 14]
  Inhibition rate (%): 84.01%

## COc1c([C@H]2[C@H](C(=O)Nc3ccc(F)c(C(=N)NO)c3F)O[C@@](C)(C(F)(F)F)[C@H]2C)ccc(F)c1F [Example 15]
  Inhibition rate (%): 56.23%

## COc1c(C2C(C(=O)Nc3ccc(F)c(C(=N)NC#N)c3)OC(C)(C(F)(F)F)C2C)ccc(F)c1F (centres unmarked) [Example 16]
  Inhibition rate (%): 95.94%
